Measurements published in US9447116B2, “Inhibitors of HIV replication” (priority 2010, dated 2016).
pIC50: −log10 of the molar value. Read-outs that look alike come from different tables or passages of the source.

Legend:
[1] = tested on: HIV-1 virus (NL4.3 strain); assay: MT-2 based antiviral assay (S8737E); assay type: cell-based; details: for IC50: Human immunodeficiency virus 1, 72 h, read-out: Antiviral Activity (S8737E, μM), HIV-1 NL4.3 replication in MT2 cells, 3 days, β-Gal readout in JC53BL cells
Excerpt: MT-2 Based Antiviral Assay (S8737E)
This assay is designed to determine the effects of small molecules on the replication of HIV-1 in the lymphobastoid cell line, MT2, and is able to detect the antiviral effect of compounds acting at any stage of the HIV-1 replication cycle. The assay, along with its associated cytotoxicity assay, was described in detail in 2005 in a paper by Cao et al (Antimicrobial Agents and Chemotherapy 2005; 49(9), p 3833-3841).
MT2 cells are infected with the HIV-1 virus (NL4.3 strain; Adachi et al., Journal of Virology 1986) and transferred to assay plates containing serial dilutions of compounds to be tested. The assay plates are incubated for 3 days (MT2) to allow for several rounds of viral replication/infection to take place. At the end of this time, supernatant is transferred into new plates containing JC53BL cells.
JC53BL cells express CXCR4, CCR5 and CD4 receptors, and HIV-1-LTR-β-Gal. Under normal culture conditions undetectable levels of β-Galactosidase are expressed, but in the presence of HIV-1, the viral Tat protein is able to activate the HIV-1-LTR in the JC53BL cells resulting in the increased expression of the β-Gal enzyme. The expression can be measured using the ‘FluorAce β-Galactosidase reporter’ assay. The levels of β-Gal are directly proportional to the levels of Tat (up to a threshold) allowing virus quantification. Compounds that inhibit virus replication will give rise to a reduced signal and a dose-response curve for each compound can be generated. This is then used to determine the IC50 for each compound, a measure of the compound's potency.

[2] = molecular target: T1, LEDGF-Integrase interaction (Human immunodeficiency virus type 1 group M subtype B, UniProt P12497); assay: HTRF Interaction assay (S9118); set-up: species or system HIV; details: His6-tagged integrase and MBP-LEDGF integrase binding domain
T1 construct: His6-tagged integrase (78 nM final concentration); purchased Prof; Zeger Debyser, Katholieke Universiteit Leuven (supplied by an academic laboratory, not a commercial vendor)
Excerpt: • Adachi, A., Gendelman, H., Koenig, S., Folks, T., Wiley, R., Rabson, A. and Martin, M (1986) Production of acquired immunodeficency syndrome-associated retrovirus in human and nonhuman cells transfected with an infectious molecular clone, J. Virol., 59, 284-291. • Cao J, Isaacson J, Patick A K, Blair W S. (2005) High-throughput human immunodeficiency virus type 1 (HIV-1) full replication assay that includes HIV-1 Vif as an antiviral target Antimicrobial Agents and Chemotherapy; 49(9), p 3833-3841. Assay to Measure the LEDGF-Integrase Integration Inhibitory Activity of Compounds of the Invention HTRF Interaction Assay (S9118)
An Homogeneous Time Resolved Fluorescence (HTRF) assay is performed in a manner similar to previous reports on HTRF protein assays as reviewed by Mathis (Clin. Chem., 2005). The assay procedure is performed as follows: reactions are performed in 20 μl final volume in 384-well black low volume microtiter plates (Greiner). The final reaction buffer contains 29 mM phosphase buffer (pH 7), 10 mM HEPES buffet (pH 7.4), 68.5 mM NaCl, 1.4 mM KCl, 400 mM KF 0.05% (w/v) pluronic acid (P104, Sigma Aldrich) and 1% (v/v) DMSO. His6-tagged integrase (78 nM final concentration) is incubated with […] fused to the Δ325 carboxy terminal integrase binding domain of LEDGF in the presence of compound for 2 hours at room temperature. Both these protein regents are supplied by Prof. Zeger Debyser of Katholleke Universiteit Leuven, Leuven, Belgium. The compounds are added at varying concentrations spanning a wide range from 0.1 up to 100 μM. Afterwards 8.3 nM of europium cryptate conjugated anti-MBP monoclonal antibody and 17 nM anti-His antibody conjugated with the acceptor fluorophore d2. Following a 2 hour room temperature incubation the plates are read on an EnVision™ microplate reader (Perkin Elmer) using an excitation wavelength of 320 nm. The ratio of fluorescence emitted at […] is used to assess the degree to which the protein-protein interaction had been inhibited.

SMILES	IC50 [1] [µM]	pIC50 [2]	pIC50 ([2]; table values)	pIC50 ([1]; read-out: Antiviral Activity (S8737E), HIV-1 NL4.3 replication in MT2 cells, 3 days, β-Gal readout in JC53BL cells)
Cc1ccc(-c2c([C@@H](OC(C)(C)C)C(=O)O)c(C)nc3sc4c(c23)CCCC4)c(O)c1 (single isomer, unassigned) [48, first eluting enantiomer]	0.089	5.39		
Cc1ccc(-c2c(C(OC(C)(C)C)C(=O)O)c(C)nc3sc4c(c23)CCCC4)c(O)c1 (single isomer, unassigned) [48, second eluting enantiomer]	0.013	6.24		
Cc1nc2sc3c(c2c(-c2ccc(Cl)cc2O)c1[C@H](OC(C)(C)C)C(=O)O)CCCC3 (single isomer, unassigned) [Atropisomer 46A]	0.014	6.25		
Cc1nc2sc3c(c2c(-c2cncnc2)c1C(OC(C)(C)C)C(=O)O)CCCC3 (stereo not drawn) [Example 1, Tert-butoxy(2-methyl-4-pyrimidin-5-yl-5,6,7,8-tetrahydro[1]benzothieno[2,3-b]pyridin-3-yl)acetic acid]	> 20			
Cc1nc2sc3c(c2c(-c2ccc4scnc4c2)c1C(OC(C)(C)C)C(=O)O)CCCC3 (stereo not drawn) [Example 4]	0.282		5.46	
CCc1ccc(-c2c(C(OC(C)(C)C)C(=O)O)c(C)nc3sc4c(c23)CCCC4)c(O)c1 (stereo not drawn) [Example 5]	0.155		5.57	
Cc1nc2sc3c(c2c(-c2ccc4cn[nH]c4c2)c1C(OC(C)(C)C)C(=O)O)CCCC3 (stereo not drawn) [Example 6]	0.305		5.58	
COc1ccc(-c2c(C(OC(C)(C)C)C(=O)O)c(C)nc3sc4c(c23)CCCC4)cn1 (stereo not drawn) [Example 7]	0.436		5.03	
CCn1cc(-c2c(C(OC(C)(C)C)C(=O)O)c(C)nc3sc4c(c23)CCCC4)cn1 (stereo not drawn) [Example 8]	0.624		4.62	
Cc1nc2sc3c(c2c(-c2ccc(C(F)(F)F)nc2)c1C(OC(C)(C)C)C(=O)O)CCCC3 (stereo not drawn) [Example 9]	0.683		4.93	
Cc1nc2sc3c(c2c(-c2ccc4cnn(C)c4c2)c1C(OC(C)(C)C)C(=O)O)CCCC3 (stereo not drawn) [Example 10]	0.795		5.10	
Cc1nc2sc3c(c2c(-c2ccc4cnn(C)c4c2)c1C(OC(C)(C)C)C(=O)O)CCCC3 (stereo not drawn) [Example 11]			4.91	6.09
Cc1nc2sc3c(c2c(-c2ccc4c(cnn4C)c2)c1C(OC(C)(C)C)C(=O)O)CCCC3 (stereo not drawn) [Example 12]	0.941		5.29	
Cc1nc2sc3c(c2c(-c2ccccc2CO)c1C(OC(C)(C)C)C(=O)O)CCCC3 (stereo not drawn) [Example 13]	0.957		4.25	
COc1cc(-c2c(C(OC(C)(C)C)C(=O)O)c(C)nc3sc4c(c23)CCCC4)ccn1 (stereo not drawn) [Example 14]	1.24		4.55	
Cc1nc2sc3c(c2c(-c2ccc(C#N)cc2)c1C(OC(C)(C)C)C(=O)O)CCCC3 (stereo not drawn) [Example 15]	1.28		4.83	
Cc1nc2sc3c(c2c(-c2ccccc2O)c1C(OC(C)(C)C)C(=O)O)CCCC3 (stereo not drawn) [Example 16]	1.73		4.24	
Cc1nc2sc3c(c2c(-c2ccc4nccn4c2)c1C(OC(C)(C)C)C(=O)O)CCCC3 (stereo not drawn) [Example 17]	1.78		< 4.00	
Cc1nc2sc3c(c2c(-c2cnc4ccoc4c2)c1C(OC(C)(C)C)C(=O)O)CCCC3 (stereo not drawn) [Example 18]	1.84		4.52	
Cc1nc2sc3c(c2c(-c2cccc(-c4nccn4C)c2)c1C(OC(C)(C)C)C(=O)O)CCCC3 (stereo not drawn) [Example 19]	1.9		4.33	
Cc1nc2cc(-c3c(C(OC(C)(C)C)C(=O)O)c(C)nc4sc5c(c34)CCCC5)ccc2s1 (stereo not drawn) [Example 20]	2.01		4.93	
CCOC(C(=O)O)c1c(C)nc2sc3c(c2c1-c1ccc2nsnc2c1)CCCC3 (stereo not drawn) [Example 21]	2.17		4.19	

SMILES	IC50 [1] [µM]	pIC50 [2]	pIC50 ([2]; table values)	pIC50 ([1]; read-out: Antiviral Activity (S8737E), HIV-1 NL4.3 replication in MT2 cells, 3 days, β-Gal readout in JC53BL cells)
Cc1nc2ccc(-c3c(C(OC(C)(C)C)C(=O)O)c(C)nc4sc5c(c34)CCCC5)cc2s1 (stereo not drawn) [Example 22]	2.73		4.89	
CCOC(C(=O)O)c1c(C)nc2sc3c(c2c1-c1ccc2cn[nH]c2c1)CCCC3 (stereo not drawn) [Example 23]	2.73		4.48	
Cc1nc2sc3c(c2c(-c2cccc4c2cnn4C)c1C(OC(C)(C)C)C(=O)O)CCCC3 (stereo not drawn) [Example 24]	2.81		5.12	
CCOC(C(=O)O)c1c(C)nc2sc3c(c2c1-c1ccccc1O)CCCC3 (stereo not drawn) [Example 25]	4.07		< 4.00	
Cc1nc2sc3c(c2c(-c2cccc(C#N)c2)c1C(OC(C)(C)C)C(=O)O)CCCC3 (stereo not drawn) [Example 26]	4.51		< 4.00	
Cc1nc2sc3c(c2c(-c2cccc(CO)c2)c1C(OC(C)(C)C)C(=O)O)CCCC3 (stereo not drawn) [Example 27]	4.64		4.24	
Cc1cc(C)n(-c2cccc(-c3c(C(OC(C)(C)C)C(=O)O)c(C)nc4sc5c(c34)CCCC5)c2)n1 (stereo not drawn) [Example 28]	5.61		4.53	
Cc1nc2sc3c(c2c(-c2ccc(N(C)C)nc2)c1C(OC(C)(C)C)C(=O)O)CCCC3 (stereo not drawn) [Example 29]	5.73		4.19	
Cc1nc2sc3c(c2c(-c2cnc4cc[nH]c4c2)c1C(OC(C)(C)C)C(=O)O)CCCC3 (stereo not drawn) [Example 30]	6.63		4.81	
CCOC(C(=O)O)c1c(C)nc2sc3c(c2c1-c1ccc2scnc2c1)CCCC3 (stereo not drawn) [Example 31]	6.66		< 4.00	
Cc1nc2sc3c(c2c(-c2ccc4[nH]ncc4c2)c1C(OC(C)(C)C)C(=O)O)CCCC3 (stereo not drawn) [Example 32]	7.65		< 4.00	
CCOC(C(=O)O)c1c(C)nc2sc3c(c2c1-c1ccc(C(F)(F)F)nc1)CCCC3 (stereo not drawn) [Example 33]	8.19		< 4.00	
CCOC(C(=O)O)c1c(C)nc2sc3c(c2c1-c1ccccc1CO)CCCC3 (stereo not drawn) [Example 34]	8.97		< 4.00	
CCOC(C(=O)O)c1c(C)nc2sc3c(c2c1-c1ccc2cnn(C)c2c1)CCCC3 (stereo not drawn) [Example 35]	10.7		< 4.00	
Cc1nc2sc3c(c2c(-c2c[nH]c4nccc-4c2)c1C(OC(C)(C)C)C(=O)O)CCCC3 (stereo not drawn) [Example 36]	12		< 4.00	
Cc1cc(-c2c(C(OC(C)(C)C)C(=O)O)c(C)nc3sc4c(c23)CCCC4)ccn1 (stereo not drawn) [Example 37]	13.9		< 4.00	
Cc1nc2sc3c(c2c(-c2cccc(-n4cccn4)c2)c1C(OC(C)(C)C)C(=O)O)CCCC3 (stereo not drawn) [Example 38]	15.1		4.01	
COc1ncc(-c2c(C(OC(C)(C)C)C(=O)O)c(C)nc3sc4c(c23)CCCC4)cn1 (stereo not drawn) [Example 39]	15.5		< 4.00	
CCOC(C(=O)O)c1c(C)nc2sc3c(c2c1-c1cnn(CC)c1)CCCC3 (stereo not drawn) [Example 41]	17.7		< 4.00	
CCOC(C(=O)O)c1c(C)nc2sc3c(c2c1-c1ccc(OC)nc1)CCCC3 (stereo not drawn) [Example 42]	18.1		< 4.00	
CCOC(C(=O)O)c1c(C)nc2sc3c(c2c1-c1ccc2c(cnn2C)c1)CCCC3 (stereo not drawn) [Example 43]	18.9		< 4.00	
Cc1nc2sc3c(c2c(-c2ccc(Cl)cc2)c1[C@H](OC(C)(C)C)C(=O)O)CCCC3 [Example 44, (2S)-tert-butoxy[4-(4-chlorophenyl)-2-methyl-5,6,7,8-tetrahydro[1]benzothieno[2,3-b]pyridin-3-yl]acetic acid]	0.036	6.24		
